Results: patent publication EP0677039B1, “CYCLOBUTANE DERIVATIVES AS INHIBITORS OF […] SYNTHETASE AND PROTEIN […]” (Abbott Laboratories, priority 1993, dated 1995)

target: T1, Rat liver microsomal squalene synthetase (Rattus norvegicus, UniProt Q02769); experiment: In vitro inhibition of squalene synthetase; format: biochemical; settings: 10 µM test compound; rat liver microsomes, labelled farnesyl pyrophosphate, 10 minutes at 37 °C; compared to controls with no test compound
T1 construct: Rat liver microsome, the source of enzyme; from tissue; host or cells: rat liver microsomes
T1 sequence (Q02769 1-416): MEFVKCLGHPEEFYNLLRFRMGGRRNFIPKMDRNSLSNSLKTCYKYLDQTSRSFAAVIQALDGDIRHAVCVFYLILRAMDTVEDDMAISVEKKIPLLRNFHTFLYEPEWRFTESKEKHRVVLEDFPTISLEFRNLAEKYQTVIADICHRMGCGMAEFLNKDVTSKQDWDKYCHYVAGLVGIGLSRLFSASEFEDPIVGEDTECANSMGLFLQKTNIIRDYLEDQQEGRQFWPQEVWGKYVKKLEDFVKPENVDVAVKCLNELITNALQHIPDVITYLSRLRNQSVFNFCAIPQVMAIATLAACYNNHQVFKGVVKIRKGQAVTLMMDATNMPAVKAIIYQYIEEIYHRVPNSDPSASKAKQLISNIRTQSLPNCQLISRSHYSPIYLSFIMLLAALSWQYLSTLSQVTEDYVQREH
Method: In vitro inhibition of squalene synthetase may be measured by the following procedure. Rat liver microsomal squalene synthetase activity was measured using farnesyl pyrophosphate as a substrate and quantitating squalene synthesis using labelled farnesyl pyrophosphate and counting the squalene formed. Rat liver microsome, the source of enzyme, was prepared according to the method of Gillies, P. J., et al., Exp. Molc. Pathol. 44: 329-339 (1986), a modification of the procedure of Erickson, S. K., and Cooper, A. D., Metabolism, 29: 991-996 (1980). […] Oxygen was excluded from the closed incubation tube by degassing with nitrogen. The reaction was terminated by the addition of ethanolic KOH and after degassing with N2, the microsomal membranes were solubilized by heating at 60 °C for 30 minutes. The squalene was extracted into hexane, and the squalene was separated from all other radioactive molecules by passage over an activated alumina column. […] The per cent inhibition at a dose of 10 µM (or 1 µM) compared to controls with no test compound was determined. […]

| Molecule | inhibition at 10 µM |
| --- | --- |
| CN(Cc1ccc(OCc2ccccc2)cc1)C(=O)[C@H]1[C@@H](C(=O)O)[C@H](C(=O)O)[C@@H]1C(=O)N(C)Cc1ccc(OCc2ccccc2)cc1 [Example 14, (1α,2β,3β,4α)-1,2-Di(N-methyl-N-(4-benzyloxybenzyl)aminocarbonyl]cyclobutane-3,4-dicarboxylic acid] | 31% |
| CN(Cc1cccc(Oc2ccc(F)cc2)c1)C(=O)[C@H]1[C@@H](C(=O)O)[C@H](C(=O)O)[C@@H]1C(=O)N(C)Cc1cccc(Oc2ccc(F)cc2)c1 [Example 21, (1α,2β,3β,4α)-1,2-Di[N-methyl-N-(3-[4-fluorophenoxy]benzyl)aminocarbonyl]cyclobutane-3,4-dicarboxylic acid] | 52% |
| CN(Cc1ccc(Oc2ccccc2)cc1)C(=O)NC1C(NC(=O)N(C)Cc2ccc(Oc3ccccc3)cc2)C(C(=O)O)C1C(=O)O (stereo not drawn) [Example 120, (1α,2β,3β,4α)-1,2-Di[N-methyl-N-(4-phenoxybenzyl)aminocarbonylamino]cyclobutane-3,4-dicarboxylic acid] | 54% |
| CCCN(Cc1ccc(Oc2ccc(C)cc2)cc1)C(=O)C1C(C(=O)O)C(C(=O)O)C1C(=O)N(CCC)Cc1ccc(Oc2ccc(C)cc2)cc1 (stereo not drawn) [Example 90, (1α,2β,3β,4α)-1,2-Di[N-propyl-N-(4-(4-methyl-1-phenoxy)benzyl)aminocarbonyl]cyclobutane-3,4-dicarboxylic acid] | 53% |
| O=C(O)[C@H]1[C@H](C(=O)O)[C@H](C(=O)N(Cc2ccc(Oc3ccccc3)cc2)Cc2ccc(Oc3ccccc3)cc2)[C@H]1C(=O)N(Cc1ccc(Oc2ccccc2)cc1)Cc1ccc(Oc2ccccc2)cc1 [Example 19, (1α,2β,3β,4α)-1,2-Di[N,N-di(4-phenoxybenzyl)aminocarbonyl]cyclobutane-3,4-dicarboxylic acid] | 86% |

More lines, now with the values ahead:

| inhibition at 10 µM | Molecule |
| --- | --- |
| 87% | O=C(O)C1C(C(=O)O)C(C(=O)N(Cc2ccc(Oc3ccccc3)cc2)CC2CC2)C1C(=O)N(Cc1ccc(Oc2ccccc2)cc1)CC1CC1 (stereo not drawn) [Example 47B, (1α,2β,3β,4α)-1,2-Di[N-(cyclopropylmethyl)-N-(4-phenoxybenzyl)aminocarbonyl]cyclobutane-3,4-dicarboxylic acid] |
| 90% | CCCN(Cc1ccc(Oc2ccccc2)cc1)C(=O)[C@@H]1[C@H](CC(=O)O)[C@@H](CC(=O)O)[C@H]1C(=O)N(CCC)Cc1ccc(Oc2ccccc2)cc1 (relative stereo) [Example 103B, (1α,2β,3β,4α)-1,2-Di[-N-propyl-N-(4-phenoxybenzyl)aminocarbonyl]cyclobutane-3-4-diacetic acid] |
| 58% | O=C(O)[C@H]1[C@H](C(=O)O)[C@H](C(=O)OCc2ccc(Oc3ccccc3)cc2)[C@H]1C(=O)OCc1ccc(Oc2ccccc2)cc1 [Example 65B, (1α,2β,3β,4α)-1,2-Di-(4-phenoxybenzyloxycarbonyl)-3,4-dicarboxylic acid] |

same assay, conditions: values marked * in Table 1: 1 µM test compound; rat liver microsomes, labelled farnesyl pyrophosphate, 10 minutes at 37 °C

| inhibition at 1 µM | Molecule |
| --- | --- |
| 81% | CCSCCN(Cc1ccc(Oc2ccccc2)cc1)C(=O)C1C(C(=O)O)C(C(=O)O)C1C(=O)N(CCSCC)Cc1ccc(Oc2ccccc2)cc1 (stereo not drawn) [Example 42, (1α,2β,3β,4α)-1,2-Di[N-(2-ethylthioethyl)-N-(4-phenoxybenzyl)aminocarbonyl]cyclobutane-3,4-dicarboxylic acid] |
| 79% | O=C(O)C1C(C(=O)O)C(C(=O)N(Cc2ccc(Oc3ccccc3)cc2)C2CCC2)C1C(=O)N(Cc1ccc(Oc2ccccc2)cc1)C1CCC1 (stereo not drawn) [Example 48, (1α,2β,3β,4α)-1,2-Di[N-cyclobutyl-N-(4-phenoxybenzyl)aminocarbonyl]cyclobutane-3,4-dicarboxylic acid] |
| 75% | CCCN(Cc1ccc(Oc2ccccc2)cc1)C(=O)C1C(Cc2nn[nH]n2)C(C(=O)O)C1C(=O)N(CCC)Cc1ccc(Oc2ccccc2)cc1 (stereo not drawn) [Example 73B] |

same assay, conditions: values marked * in Table 1: 1 µM test compound; rat liver microsomes, labelled farnesyl pyrophosphate, 10 minutes at 37 °C; 1 µM

| % Inhibition at 1 µM | Molecule |
| --- | --- |
| 57* % | (1α,2β,3β,4α)-1,2-Di[N-propyl-N-(4-phenoxybenzyl)aminocarbonyl]cyclobutane-3-phenoxycarbonyl-4-carboxylic acid [Example 105B] |
